Results taken from patent US6552072B2, “Use of metal complexes to treat gastrointestinal infections” (Pfylori Limited, priority 1996, dated 2003).

System: H. pylori
Experiment: In vitro minimum inhibitor concentrations (MICs) of metal-ligand complexes against H. pylori
Type: cell-based
Conditions: Example 1
Text: In Vitro Minimum Inhibitor Concentrations (MICs) Using Metal-ligand Complexes
Study of MICs of Other Metal-ligands Against H. pylori

Compound | MIC against H. pylori | MIC (Helicobacter pylori)
[O-][n+]1ccccc1[S-].[O-][n+]1ccccc1[S-].[Zn+2] [Zinc Salt] | >>64 μg/l | –
O=C([O-])CC(O)(CC(=O)[O-])C(=O)[O-].O=C([O-])CC(O)(CC(=O)[O-])C(=O)[O-].[Zn+2].[Zn+2].[Zn+2] [Zinc Citrate, Zinc citrate] | 8 to 64 µg/L | –
O=C(O)CC(O)(CC(=O)O)C(=O)O [Citrate] | – | > 0.064 µg/mL
